Earlier results on two compounds are cited in US20040112375A1, “Predicting outcome of hyperbaric oxygen therapy treatment with nitric oxide bioavailability” (priority 2002, published 2004).

In the case of “2-(2,3-dihydro-5-acetoxy-4,6,7-trimethylbenzofuranyl) acetic acid [raxofelast]”, where the note is “diabetic men, 600 mg twice daily for seven days”, the “fall of plasma isoprostane levels” value was 50%.
Regarding `Cc1c(C)c2c(c(C)c1O)CC[C@@](C)(CCC[C@H](C)CCC[C@H](C)CCCC(C)C)O2` [alpha tocopherol], the “effect on isoprostane levels in biological fluids” value (in vivo) was “reduce such isoprostane levels”.
